Measured values from publication PMC12058161, “The plant matrix of Artemisia annua L. for the treatment of malaria: Pharmacodynamic and pharmacokinetic studies” (PLOS One, 2025).
“And” between values parts separate entries of the source, which are not always exact repeats. Equal values may be shown once.

Columns and labels:
[1] = tested on: Caco-2 cell monolayers; assay: Bidirectional transport of ART across Caco-2 cell monolayers (LC-MS/MS); type: in vitro ADME, human; conditions: for transhipment of ART, AP-BL / transhipment of ART, Transepithelial transport in BL-to-AP: single replicate; for ART concentration per group, summary block: summary used for cumulative amount
Excerpt: (§1) The human epithelial cell line Caco-2 serves as a widely recognized model for the intestinal epithelial barrier, frequently utilized in the assessment of drug absorption and transport mechanisms. In this study, we evaluated drug absorption and distribution in vitro with the help of the Caco-2 cell model. Caco-2 cells were purchased from the Chinese Academy of Medical Sciences (Beijing, China, Resource No. 3111C0001CCC000100). The cells were resuscitated and inserted into culture flasks. Caco-2 cells were passaged with DMEM high glucose medium containing 10% (V/V) FBS, 1% (V/V) non-essential amino acid solution and 100 U/mL penicillin-streptomycin double antibiotic solution, and cultured at 37°C in a 5% CO2 incubator. […] The integrity of the cell monolayer was checked by measuring the transmembrane electrical resistance (TEER) of the monolayer cells with a Millicell-ERS electrode (Millipore Corp., Billerica, MA, USA). Caco-2 cells were used for transport experiments 17-21 days after inoculation. Besides, only monolayers with TEER values above 400 Ω/cm^2 were used in the study. […] To prepare drug-treated Caco-2 cell monolayers, Caco-2 cells cultured in Transwell® inserts were aseptically treated on day 21 with 10 μM of […] and nACTs. […] The excitation wavelength was set at 485 nm, and the emission wavelength at 535 nm. […] The efflux ratio was calculated using the Papp (BL-AP) to Papp (AP-BL) ratio. […] The solvent gradient was 65%B-95%B for 0-5 min; 95%B for 5-6 min; and 35%B for 6-9 min.

[2] = as above; type: in vitro ADME, human; conditions: human, Caco-2 monolayer, n = 3
Excerpt: as §1

[3] = tested on: Plasmodium berghei (P. berghei); assay: Peters' four-day inhibition method, P. berghei murine malaria model; type: in vivo, ICR mice; conditions: individual mice
Experimental: In vivo evaluation of antimalarial activity was performed using the classical Peters’ four-day inhibition method. A murine malaria model was constructed by intraperitoneal injection of 5.00 × 10^7 Plasmodium yoelii (P. yoelii)- or Plasmodium berghei (P. berghei)-infected erythrocytes. […] Mice were gavaged once 4 hours after infection with medicated soybean oil or the test drug (gavage standard was 0.20 mL/10 g), and the drug was administered orally for 4 consecutive days. Four hours after the last dose, blood was collected from the tail tip of the mice to make a thin blood smear. The smear was air-dried, fixed in methanol, stained with Giemsa for 30 minutes, then rinsed with distilled water, air-dried at room temperature, and visualized for malaria infection under a microscope (OLYMPUS BX43) at 100x oil immersion. The inhibition ratio (%) for each group was calculated using the following equations:
Inhibitionratio(%)=(infectionratiocontrolgroup−infectionratiotreatmentgroup)/infectionratiocontrolgroup×100

[4] = Pharmacokinetic study in rats after oral administration (UHPLC-ESI-MS/MS of plasma); conditions: for half-life: male, Sprague Dawley, rat, in vivo, po
[5] = target: T1, P-glycoprotein (P-gp) (Homo sapiens, UniProt P08183); assay: Rhodamine 123 (P-gp substrate) transport across drug-treated Caco-2 cell monolayers; type: cell-based; conditions: co-incubated with R123, 10 μM, Caco-2 monolayer, Fig 6
T1 construct: The transport of R123 in normal Caco-2 cell monolayers or drug-treated Caco-2 cell monolayers was further studied; host or cells: Caco-2
T1 sequence (P08183 whole entry): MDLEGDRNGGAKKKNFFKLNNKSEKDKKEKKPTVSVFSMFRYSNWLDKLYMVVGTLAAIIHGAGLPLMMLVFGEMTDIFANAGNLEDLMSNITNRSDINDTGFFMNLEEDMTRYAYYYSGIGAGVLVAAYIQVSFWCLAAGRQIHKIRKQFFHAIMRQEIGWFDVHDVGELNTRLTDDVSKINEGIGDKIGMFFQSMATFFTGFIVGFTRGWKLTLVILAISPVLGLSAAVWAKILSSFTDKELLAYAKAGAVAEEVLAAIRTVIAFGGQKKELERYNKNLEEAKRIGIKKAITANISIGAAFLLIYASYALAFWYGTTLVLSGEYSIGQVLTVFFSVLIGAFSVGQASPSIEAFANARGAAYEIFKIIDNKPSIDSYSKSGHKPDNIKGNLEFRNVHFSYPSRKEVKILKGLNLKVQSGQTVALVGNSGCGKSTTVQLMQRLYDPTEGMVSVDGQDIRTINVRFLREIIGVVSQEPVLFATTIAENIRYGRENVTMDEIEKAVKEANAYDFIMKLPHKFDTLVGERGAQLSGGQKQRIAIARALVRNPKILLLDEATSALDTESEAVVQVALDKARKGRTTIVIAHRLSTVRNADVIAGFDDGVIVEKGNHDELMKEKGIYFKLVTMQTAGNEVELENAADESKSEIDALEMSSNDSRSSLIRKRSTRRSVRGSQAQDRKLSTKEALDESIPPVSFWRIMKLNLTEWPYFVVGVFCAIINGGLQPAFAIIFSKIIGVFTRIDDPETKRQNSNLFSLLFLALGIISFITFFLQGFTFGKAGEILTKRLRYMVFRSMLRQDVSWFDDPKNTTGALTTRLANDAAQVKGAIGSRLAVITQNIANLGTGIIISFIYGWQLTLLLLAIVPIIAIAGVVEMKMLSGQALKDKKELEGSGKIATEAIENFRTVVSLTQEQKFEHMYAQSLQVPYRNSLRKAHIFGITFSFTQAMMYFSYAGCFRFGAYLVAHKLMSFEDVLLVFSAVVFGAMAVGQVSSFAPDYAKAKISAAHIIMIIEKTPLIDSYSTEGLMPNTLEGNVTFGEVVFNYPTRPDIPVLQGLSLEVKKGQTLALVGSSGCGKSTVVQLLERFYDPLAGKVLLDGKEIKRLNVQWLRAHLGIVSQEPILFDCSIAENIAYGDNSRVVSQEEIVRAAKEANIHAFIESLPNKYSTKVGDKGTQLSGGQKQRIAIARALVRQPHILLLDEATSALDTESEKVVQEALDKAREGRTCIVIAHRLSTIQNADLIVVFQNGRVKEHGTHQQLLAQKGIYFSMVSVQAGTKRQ
Excerpt: The human epithelial cell line Caco-2 serves as a widely recognized model for the intestinal epithelial barrier, frequently utilized in the assessment of drug absorption and transport mechanisms. In this study, we evaluated drug absorption and distribution in vitro with the help of the Caco-2 cell model. Caco-2 cells were purchased from the Chinese Academy of Medical Sciences (Beijing, China, Resource No. 3111C0001CCC000100). The cells were resuscitated and inserted into culture flasks. Caco-2 cells were passaged with DMEM high glucose medium containing 10% (V/V) FBS, 1% (V/V) non-essential amino acid solution and 100 U/mL penicillin-streptomycin double antibiotic solution, and cultured at 37°C in a 5% CO2 incubator. […] The integrity of the cell monolayer was checked by measuring the transmembrane electrical resistance (TEER) of the monolayer cells with a Millicell-ERS electrode (Millipore Corp., Billerica, MA, USA). Caco-2 cells were used for transport experiments 17–21 days after inoculation. Besides, only monolayers with TEER values above 400 Ω/cm^2 were used in the study.
The transport of R123 in normal Caco-2 cell monolayers or drug-treated Caco-2 cell monolayers was further studied. […] The transport buffer containing 5 μM of R123 was added on either the AP or the BL side of the inserts, as described above. […] The concentrations of R123 were immediately analyzed by SpectraMax iD3. The excitation wavelength was set at 485 nm, and the emission wavelength at 535 nm. Papp values across the cell monolayers were calculated according to the equation: Papp = dQ/dt × 1/(A × C0), where dQ/dt represents the rate of drug transport. […] The efflux ratio was calculated using the Papp (BL-AP) to Papp (AP-BL) ratio.

[6] = sample code A: apical(AP), 30 min
[7] = sample code A: apical(AP), 60 min
[8] = sample code A: apical(AP), 90 min
[9] = sample code A: apical(AP), 120 min
[10] = sample code A: apical(AP), 150 min
[11] = sample code A: apical(AP), 180 min
[12] = sample code B: basolateral (BL), 30 min
[13] = sample code B: basolateral (BL), 60 min
[14] = sample code B: basolateral (BL), 90 min
[15] = sample code B: basolateral (BL), 120 min
[16] = sample code B: basolateral (BL), 150 min
[17] = sample code B: basolateral (BL), 180 min
[18] = Caco-2, ART given as nACTs equivalent to 10 μM ART

C[C@@H]1CC[C@H]2[C@@H](C)C(=O)O[C@@H]3O[C@@]4(C)CC[C@@H]1[C@]32OO4 [ART, Artemisinin, reference compound]
transhipment of ART, AP-BL ([1]; 30 min): 3.69 nmol and 3.84 nmol and 3.71 nmol | transhipment of ART, AP-BL ([1]; 60 min): 5.02 nmol and 5.27 nmol and 5.14 nmol | transhipment of ART, AP-BL ([1]; 90 min): 7.24 nmol and 7.11 nmol and 7.33 nmol | transhipment of ART, AP-BL ([1]; 120 min): 8.97 nmol and 9.16 nmol and 9.09 nmol | transhipment of ART, AP-BL ([1]; 150 min): 10.67 nmol and 10.60 nmol and 10.62 nmol | transhipment of ART, AP-BL ([1]; 180 min): 11.97 nmol (2×) and 11.99 nmol | transhipment of ART, Transepithelial transport in BL-to-AP ([1]; 30 min): 28.49 nmol and 28.67 nmol and 28.4 nmol | transhipment of ART, Transepithelial transport in BL-to-AP ([1]; 60 min): 55.39 nmol and 55.5 nmol and 55.82 nmol | transhipment of ART, Transepithelial transport in BL-to-AP ([1]; 90 min): 69.96 nmol and 69.87 nmol and 69.99 nmol | transhipment of ART, Transepithelial transport in BL-to-AP ([1]; 120 min): 90.64 nmol and 90.48 nmol and 90.67 nmol | transhipment of ART, Transepithelial transport in BL-to-AP ([1]; 150 min): 106.51 nmol and 106.61 nmol and 106.74 nmol | transhipment of ART, Transepithelial transport in BL-to-AP ([1]; 180 min): 124.37 nmol and 124.58 nmol and 124.56 nmol | ART original concentration, single replicate [1, 6]: 786.91 ng/mL and 1910.44 ng/mL and 2313.90 ng/mL | ART original concentration, column mean [1, 6]: 2112.17 ng/mL | ART concentration per group, summary block [1, 6]: 2112.17 ng/mL | ART original concentration, single replicate [1, 7]: 2149.07 ng/mL and 2049.02 ng/mL and 3232.78 ng/mL | ART original concentration, column mean [1, 7]: 2640.90 ng/mL | ART concentration per group, summary block [1, 7]: 2476.96 ng/mL | ART original concentration, single replicate [1, 8]: 2915.94 ng/mL and 2813.25 ng/mL and 3472.39 ng/mL | ART original concentration, column mean [1, 8]: 3142.82 ng/mL | ART concentration per group, summary block [1, 8]: 3067.20 ng/mL | ART original concentration, single replicate [1, 9]: 3594.17 ng/mL and 3318.58 ng/mL and 3006.12 ng/mL | ART original concentration, column mean [1, 9]: 3162.35 ng/mL | ART concentration per group, summary block [1, 9]: 3306.29 ng/mL | ART original concentration, single replicate [1, 10]: 3213.69 ng/mL and 2917.70 ng/mL and 3363.12 ng/mL | ART original concentration, column mean [1, 10]: 3140.41 ng/mL | ART concentration per group, summary block [1, 10]: 3164.84 ng/mL | ART original concentration, single replicate [1, 11]: 2674.58 ng/mL and 2920.77 ng/mL and 2532.18 ng/mL | ART original concentration, column mean [1, 11]: 2726.47 ng/mL | ART concentration per group, summary block [1, 11]: 2709.18 ng/mL | ART original concentration, single replicate [1, 12]: 5260.58 ng/mL and 5169.96 ng/mL and 5652.08 ng/mL | ART concentration per group, summary block [1, 12]: 5360.87 ng/mL | ART original concentration, single replicate [1, 13]: 8719.34 ng/mL and 7267.89 ng/mL and 12129.77 ng/mL | ART original concentration, column mean [1, 13]: 9698.83 ng/mL | ART concentration per group, summary block [1, 13]: 9372.33 ng/mL | ART original concentration, single replicate [1, 14]: 9503.98 ng/mL and 6910.68 ng/mL and 13549.62 ng/mL | ART original concentration, column mean [1, 14]: 10230.15 ng/mL | ART concentration per group, summary block [1, 14]: 9988.09 ng/mL | ART original concentration, single replicate [1, 15]: 10562.24 ng/mL and 7482.04 ng/mL and 15676.89 ng/mL | ART original concentration, column mean [1, 15]: 11579.46 ng/mL | ART concentration per group, summary block [1, 15]: 11240.39 ng/mL | ART original concentration, single replicate [1, 16]: 9970.47 ng/mL and 7130.75 ng/mL and 15441.45 ng/mL | ART original concentration, column mean [1, 16]: 11286.10 ng/mL | ART concentration per group, summary block [1, 16]: 10847.56 ng/mL | ART original concentration, single replicate [1, 17]: 7047.15 ng/mL and 14960.70 ng/mL and 8594.06 ng/mL | ART original concentration, column mean [1, 17]: 11777.38 ng/mL | ART concentration per group, summary block [1, 17]: 10200.64 ng/mL | Papp A→B at 180 min, 10 μM ([2]; Caco-2, 10 μM ART alone (PU)): 7.49 ± 0.35 ×10⁻⁶ cm/s | Papp B→A at 180 min, 10 μM ([2]; Caco-2, 10 μM ART alone (PU)): 82.3 ± 2.1 ×10⁻⁶ cm/s | Papp A→B at 180 min, 10 μM [2, 18]: 8.42 ± 0.37 ×10⁻⁶ cm/s | Papp B→A at 180 min, 10 μM [2, 18]: 52.7 ± 2.3 ×10⁻⁶ cm/s | parasitemia% ([3]; 5.68 mg/kg): 73.4143% and 71.7174% and 72.6074% and 72.7168% and 72.6183% | parasitemia% ([3]; 11.368 mg/kg): 41.4175% and 45.3752% and 36.8615% and 43.5062% and 35.724% | parasitemia% ([3]; 22.736 mg/kg): 2.697% and 7.338% and 4.202% and 2.082% and 5.536% | half-life ([4]; 100 mg/kg, t1/2, rat plasma, ART after gavage of pure ART (PU) 100 mg/kg, n = 6): 1.1 ± 0.335 h | half-life ([4]; 100 mg/kg, t1/2z, pure artemisinin, rat plasma, DAS 2.0, Mean of 6 rats): 1.1 h | half-life ([4]; 352 mg/kg, t1/2, rat plasma, component after gavage of nACTs 352 mg/kg, n = 6): 1.76 ± 0.938 h | Cz(尾点回归值) ([4]; pure artemisinin, rat plasma, DAS 2.0, individual rats No1-No6): 14.237 mg/L

C[C@@H]1CC[C@H]2[C@@H](C)C(=O)O[C@@H]3O[C@@]4(C)CC[C@@H]1[C@]32O4 [DEART, Deoxyartemisinin]
reduction of R123 transport from the BL side to the AP side [5]: 22.40%
